Measured values from the supplement of paper PMC10307832.

Experiments:
Assay in all cases: relative viability (nuclei count vs DMSO), 5 days (fraction); higher = more cells survive
Dasatinib + Linsitinib = compound: Cc1nc(Nc2ncc(C(=O)Nc3c(C)cccc3Cl)s2)cc(N2CCN(CCO)CC2)n1 [Dasatinib] + C[C@]1(O)C[C@@H](c2nc(-c3ccc4ccc(-c5ccccc5)nc4c3)c3c(N)nccn32)C1 [Linsitinib] (partner 1 µM)
Procedure, shortened: (§1)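 Lung cancer cell lines, seeded in 1536-well plates, were treated the following day by pin tool with a single drug or with five library-drug doses (not always all listed) in √10 steps on top of a fixed anchor-drug dose. Cells were fixed and nuclei stained in one step after 5 days, and nuclei were counted. Relative viability is the nuclei count for treated wells divided by that for vehicle wells, reported as medians of duplicate plates.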

XMD13-2 + Pictilisib = compound: C1CC1C(=O)NC2=NNC3=C2C=CC(=C3)C4=CC(=CC=C4)C(=O)NC5CC5 [XMD13-2] + CS(=O)(=O)N1CCN(Cc2cc3nc(-c4cccc5[nH]ncc45)nc(N4CCOCC4)c3s2)CC1 [Pictilisib] (partner 1 µM)
Procedure, shortened: as §1

Dasatinib + Palbociclib = compound: Cc1nc(Nc2ncc(C(=O)Nc3c(C)cccc3Cl)s2)cc(N2CCN(CCO)CC2)n1 [Dasatinib] + CC(=O)c1c(C)c2cnc(Nc3ccc(N4CCNCC4)cn3)nc2n(C2CCCC2)c1=O [Palbociclib] (partner 0.5 µM)
Procedure, shortened: as §1

ALW-II-49-7 + Pemetrexed = compound: Cc1ccc(C(=O)Nc2cccc(C(F)(F)F)c2)cc1Nc1cncc(C(N)=O)c1 [ALW-II-49-7] + Nc1nc2[nH]cc(CCc3ccc(C(=O)N[C@@H](CCC(=O)O)C(=O)O)cc3)c2c(=O)[nH]1 [Pemetrexed] (partner 0.2 µM)
Procedure, shortened: as §1

NCI-H1755
relative viability (Dasatinib + Linsitinib; first compound 0.005 µM): 0.795
relative viability (Dasatinib + Linsitinib; first compound 0.01581 µM): 0.743
relative viability (Dasatinib + Linsitinib; first compound 0.05 µM): 0.642
relative viability (Dasatinib + Linsitinib; first compound 0.1581 µM): 0.391
relative viability (Dasatinib + Linsitinib; first compound 0.5 µM): 0.171
relative viability (XMD13-2 + Pictilisib; first compound 0.05 µM): 0.548
relative viability (XMD13-2 + Pictilisib; first compound 0.1581 µM): 0.411
relative viability (XMD13-2 + Pictilisib; first compound 0.5 µM): 0.48
relative viability (XMD13-2 + Pictilisib; first compound 1.581 µM): 0.315
relative viability (XMD13-2 + Pictilisib; first compound 5 µM): 0.496
relative viability (Dasatinib + Palbociclib; first compound 0.005 µM): 0.438
relative viability (Dasatinib + Palbociclib; first compound 0.01581 µM): 0.435
relative viability (Dasatinib + Palbociclib; first compound 0.05 µM): 0.401
relative viability (Dasatinib + Palbociclib; first compound 0.1581 µM): 0.322
relative viability (Dasatinib + Palbociclib; first compound 0.5 µM): 0.235
relative viability (ALW-II-49-7 + Pemetrexed; first compound 0.08 µM): 0.456
relative viability (ALW-II-49-7 + Pemetrexed; first compound 0.253 µM): 0.48
relative viability (ALW-II-49-7 + Pemetrexed; first compound 0.8 µM): 0.4
relative viability (ALW-II-49-7 + Pemetrexed; first compound 2.53 µM): 0.416
relative viability (ALW-II-49-7 + Pemetrexed; first compound 8 µM): 0.403

HCC-15
relative viability (Dasatinib + Linsitinib; first compound 0.005 µM): 0.862
relative viability (Dasatinib + Linsitinib; first compound 0.01581 µM): 0.773
relative viability (Dasatinib + Linsitinib; first compound 0.05 µM): 0.766
relative viability (Dasatinib + Linsitinib; first compound 0.1581 µM): 0.599
relative viability (Dasatinib + Linsitinib; first compound 0.5 µM): 0.555
relative viability (XMD13-2 + Pictilisib; first compound 0.05 µM): 0.766
relative viability (XMD13-2 + Pictilisib; first compound 0.1581 µM): 0.721
relative viability (XMD13-2 + Pictilisib; first compound 0.5 µM): 0.778
relative viability (XMD13-2 + Pictilisib; first compound 1.581 µM): 0.712
relative viability (XMD13-2 + Pictilisib; first compound 5 µM): 0.467
relative viability (Dasatinib + Palbociclib; first compound 0.005 µM): 0.714
relative viability (Dasatinib + Palbociclib; first compound 0.01581 µM): 0.669
relative viability (Dasatinib + Palbociclib; first compound 0.05 µM): 0.673
relative viability (Dasatinib + Palbociclib; first compound 0.1581 µM): 0.578
relative viability (Dasatinib + Palbociclib; first compound 0.5 µM): 0.565
relative viability (ALW-II-49-7 + Pemetrexed; first compound 0.08 µM): 0.214
relative viability (ALW-II-49-7 + Pemetrexed; first compound 0.253 µM): 0.227
relative viability (ALW-II-49-7 + Pemetrexed; first compound 0.8 µM): 0.228
relative viability (ALW-II-49-7 + Pemetrexed; first compound 2.53 µM): 0.227
relative viability (ALW-II-49-7 + Pemetrexed; first compound 8 µM): 0.241

EMC-BAC-2
relative viability (Dasatinib + Linsitinib; first compound 0.005 µM): 0.685
relative viability (Dasatinib + Linsitinib; first compound 0.01581 µM): 0.482
relative viability (Dasatinib + Linsitinib; first compound 0.05 µM): 0.525
relative viability (Dasatinib + Linsitinib; first compound 0.1581 µM): 0.26
relative viability (Dasatinib + Linsitinib; first compound 0.5 µM): 0.201
relative viability (XMD13-2 + Pictilisib; first compound 0.05 µM): 0.596
relative viability (XMD13-2 + Pictilisib; first compound 0.1581 µM): 0.497
relative viability (XMD13-2 + Pictilisib; first compound 0.5 µM): 0.531
relative viability (XMD13-2 + Pictilisib; first compound 1.581 µM): 0.505
relative viability (XMD13-2 + Pictilisib; first compound 5 µM): 0.413
relative viability (Dasatinib + Palbociclib; first compound 0.005 µM): 0.507
relative viability (Dasatinib + Palbociclib; first compound 0.01581 µM): 0.424
relative viability (Dasatinib + Palbociclib; first compound 0.05 µM): 0.417
relative viability (Dasatinib + Palbociclib; first compound 0.1581 µM): 0.319
relative viability (Dasatinib + Palbociclib; first compound 0.5 µM): 0.243
relative viability (ALW-II-49-7 + Pemetrexed; first compound 0.08 µM): 0.448
relative viability (ALW-II-49-7 + Pemetrexed; first compound 0.253 µM): 0.455
relative viability (ALW-II-49-7 + Pemetrexed; first compound 0.8 µM): 0.409
relative viability (ALW-II-49-7 + Pemetrexed; first compound 2.53 µM): 0.456
relative viability (ALW-II-49-7 + Pemetrexed; first compound 8 µM): 0.403

NCI-H1734
relative viability (Dasatinib + Linsitinib; first compound 0.005 µM): 0.678
relative viability (Dasatinib + Linsitinib; first compound 0.01581 µM): 0.693
relative viability (Dasatinib + Linsitinib; first compound 0.05 µM): 0.64
relative viability (Dasatinib + Linsitinib; first compound 0.1581 µM): 0.394
relative viability (Dasatinib + Linsitinib; first compound 0.5 µM): 0.331
relative viability (XMD13-2 + Pictilisib; first compound 0.05 µM): 0.558
relative viability (XMD13-2 + Pictilisib; first compound 0.1581 µM): 0.45
relative viability (XMD13-2 + Pictilisib; first compound 0.5 µM): 0.444
relative viability (XMD13-2 + Pictilisib; first compound 1.581 µM): 0.423
relative viability (XMD13-2 + Pictilisib; first compound 5 µM): 0.389
relative viability (Dasatinib + Palbociclib; first compound 0.005 µM): 0.328
relative viability (Dasatinib + Palbociclib; first compound 0.01581 µM): 0.285
relative viability (Dasatinib + Palbociclib; first compound 0.05 µM): 0.295
relative viability (Dasatinib + Palbociclib; first compound 0.1581 µM): 0.208
relative viability (Dasatinib + Palbociclib; first compound 0.5 µM): 0.2
relative viability (ALW-II-49-7 + Pemetrexed; first compound 0.08 µM): 0.427
relative viability (ALW-II-49-7 + Pemetrexed; first compound 0.253 µM): 0.448
relative viability (ALW-II-49-7 + Pemetrexed; first compound 0.8 µM): 0.428
relative viability (ALW-II-49-7 + Pemetrexed; first compound 2.53 µM): 0.404
relative viability (ALW-II-49-7 + Pemetrexed; first compound 8 µM): 0.443

NCI-H1395
relative viability (Dasatinib + Linsitinib; first compound 0.005 µM): 1.24
relative viability (Dasatinib + Linsitinib; first compound 0.01581 µM): 1.05
relative viability (Dasatinib + Linsitinib; first compound 0.05 µM): 0.887
relative viability (Dasatinib + Linsitinib; first compound 0.1581 µM): 0.451
relative viability (Dasatinib + Linsitinib; first compound 0.5 µM): 0.343
relative viability (XMD13-2 + Pictilisib; first compound 0.05 µM): 0.724
relative viability (XMD13-2 + Pictilisib; first compound 0.1581 µM): 0.646
relative viability (XMD13-2 + Pictilisib; first compound 0.5 µM): 0.623
relative viability (XMD13-2 + Pictilisib; first compound 1.581 µM): 0.574
relative viability (XMD13-2 + Pictilisib; first compound 5 µM): 0.528
relative viability (Dasatinib + Palbociclib; first compound 0.005 µM): 0.594
relative viability (Dasatinib + Palbociclib; first compound 0.01581 µM): 0.588
relative viability (Dasatinib + Palbociclib; first compound 0.05 µM): 0.535
relative viability (Dasatinib + Palbociclib; first compound 0.1581 µM): 0.443
relative viability (Dasatinib + Palbociclib; first compound 0.5 µM): 0.304
relative viability (ALW-II-49-7 + Pemetrexed; first compound 0.08 µM): 0.894
relative viability (ALW-II-49-7 + Pemetrexed; first compound 0.253 µM): 0.984
relative viability (ALW-II-49-7 + Pemetrexed; first compound 0.8 µM): 1.18
relative viability (ALW-II-49-7 + Pemetrexed; first compound 8 µM): 0.621

HOP-62
relative viability (Dasatinib + Linsitinib; first compound 0.005 µM): 1.07
relative viability (Dasatinib + Linsitinib; first compound 0.01581 µM): 1.07
relative viability (Dasatinib + Linsitinib; first compound 0.05 µM): 0.85
relative viability (Dasatinib + Linsitinib; first compound 0.1581 µM): 0.682
relative viability (Dasatinib + Linsitinib; first compound 0.5 µM): 0.297
relative viability (XMD13-2 + Pictilisib; first compound 0.05 µM): 1.01
relative viability (XMD13-2 + Pictilisib; first compound 0.1581 µM): 0.617
relative viability (XMD13-2 + Pictilisib; first compound 0.5 µM): 0.586
relative viability (XMD13-2 + Pictilisib; first compound 1.581 µM): 0.725
relative viability (XMD13-2 + Pictilisib; first compound 5 µM): 0.476
relative viability (Dasatinib + Palbociclib; first compound 0.005 µM): 0.391
relative viability (Dasatinib + Palbociclib; first compound 0.01581 µM): 0.381
relative viability (Dasatinib + Palbociclib; first compound 0.05 µM): 0.506
relative viability (Dasatinib + Palbociclib; first compound 0.1581 µM): 0.431
relative viability (Dasatinib + Palbociclib; first compound 0.5 µM): 0.182
relative viability (ALW-II-49-7 + Pemetrexed; first compound 0.08 µM): 0.313
relative viability (ALW-II-49-7 + Pemetrexed; first compound 0.253 µM): 0.35
relative viability (ALW-II-49-7 + Pemetrexed; first compound 0.8 µM): 0.322
relative viability (ALW-II-49-7 + Pemetrexed; first compound 2.53 µM): 0.307
relative viability (ALW-II-49-7 + Pemetrexed; first compound 8 µM): 0.243

LK-2
relative viability (Dasatinib + Linsitinib; first compound 0.005 µM): 0.476
relative viability (Dasatinib + Linsitinib; first compound 0.01581 µM): 0.281
relative viability (Dasatinib + Linsitinib; first compound 0.05 µM): 0.268
relative viability (Dasatinib + Linsitinib; first compound 0.1581 µM): 0.134
relative viability (Dasatinib + Linsitinib; first compound 0.5 µM): 0.198
relative viability (XMD13-2 + Pictilisib; first compound 0.05 µM): 0.744
relative viability (XMD13-2 + Pictilisib; first compound 0.1581 µM): 0.464
relative viability (XMD13-2 + Pictilisib; first compound 0.5 µM): 0.581
relative viability (XMD13-2 + Pictilisib; first compound 1.581 µM): 0.619
relative viability (XMD13-2 + Pictilisib; first compound 5 µM): 0.582
relative viability (Dasatinib + Palbociclib; first compound 0.005 µM): 0.583
relative viability (Dasatinib + Palbociclib; first compound 0.05 µM): 0.41
relative viability (Dasatinib + Palbociclib; first compound 0.1581 µM): 0.217
relative viability (Dasatinib + Palbociclib; first compound 0.5 µM): 0.223
relative viability (ALW-II-49-7 + Pemetrexed; first compound 0.08 µM): 0.244
relative viability (ALW-II-49-7 + Pemetrexed; first compound 0.253 µM): 0.282
relative viability (ALW-II-49-7 + Pemetrexed; first compound 0.8 µM): 0.316
relative viability (ALW-II-49-7 + Pemetrexed; first compound 8 µM): 0.201

SW 1573
relative viability (Dasatinib + Linsitinib; first compound 0.005 µM): 0.747
relative viability (Dasatinib + Linsitinib; first compound 0.01581 µM): 0.648
relative viability (Dasatinib + Linsitinib; first compound 0.05 µM): 0.6
relative viability (Dasatinib + Linsitinib; first compound 0.1581 µM): 0.425
relative viability (Dasatinib + Linsitinib; first compound 0.5 µM): 0.435
relative viability (XMD13-2 + Pictilisib; first compound 0.05 µM): 0.57
relative viability (XMD13-2 + Pictilisib; first compound 0.1581 µM): 0.525
relative viability (XMD13-2 + Pictilisib; first compound 0.5 µM): 0.476
relative viability (XMD13-2 + Pictilisib; first compound 1.581 µM): 0.466
relative viability (XMD13-2 + Pictilisib; first compound 5 µM): 0.272
relative viability (Dasatinib + Palbociclib; first compound 0.005 µM): 0.36
relative viability (Dasatinib + Palbociclib; first compound 0.05 µM): 0.295
relative viability (Dasatinib + Palbociclib; first compound 0.1581 µM): 0.182
relative viability (Dasatinib + Palbociclib; first compound 0.5 µM): 0.208
relative viability (ALW-II-49-7 + Pemetrexed; first compound 0.08 µM): 0.608
relative viability (ALW-II-49-7 + Pemetrexed; first compound 0.253 µM): 0.847
relative viability (ALW-II-49-7 + Pemetrexed; first compound 0.8 µM): 0.77
relative viability (ALW-II-49-7 + Pemetrexed; first compound 2.53 µM): 0.667
relative viability (ALW-II-49-7 + Pemetrexed; first compound 8 µM): 0.827
